In patent US8168651B2, “Protein kinase modulators” (Cylene Pharmaceuticals, Inc., priority 2008, dated 2012):

Experiments:
Assay in all cases: Standardized radiometric kinase assays, percentage of activity at 0.5 μM;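 note: Read-out is ³³P-labelled substrate protein phosphorylated by each kinase, captured on filters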
[1] = target: each individual kinase of the panel (Homo sapiens, UniProt O14965)
[2] = target: each individual kinase of the panel (Homo sapiens, UniProt Q15303)
[3] = target: each individual kinase of the panel (Homo sapiens, UniProt Q9P1W9)
[4] = target: each individual kinase of the panel (Homo sapiens, UniProt P08631)
[5] = target: each individual kinase of the panel (Homo sapiens, UniProt Q9UEE5)
[6] = target: each individual kinase of the panel (Homo sapiens, UniProt O14733)
[7] = target: each individual kinase of the panel (Homo sapiens, UniProt P50613)
[8] = target: each individual kinase of the panel (Homo sapiens, UniProt Q9H2X6)
[9] = target: each individual kinase of the panel (Homo sapiens, UniProt Q9UM73)
[10] = target: each individual kinase of the panel (Homo sapiens, UniProt O43293)
[11] = target: each individual kinase of the panel (Homo sapiens, UniProt P35968)
[12] = target: each individual kinase of the panel (Homo sapiens, UniProt Q02750)
[13] = target: each individual kinase of the panel (Homo sapiens, UniProt Q04759)
[14] = target: each individual kinase of the panel (Homo sapiens, UniProt P21802)
[15] = target: each individual kinase of the panel (Homo sapiens, UniProt P49841)
[16] = target: each individual kinase of the panel (Homo sapiens, UniProt P00533, L858R)
[17] = target: each individual kinase of the panel (Homo sapiens, UniProt P16234)
[18] = target: each individual kinase of the panel (Homo sapiens, UniProt Q04912)
[19] = target: each individual kinase of the panel (Homo sapiens, UniProt Q92630)
[20] = target: each individual kinase of the panel (Homo sapiens, UniProt P10721)
[21] = target: each individual kinase of the panel (Homo sapiens, UniProt P00533, T790M)
[22] = target: each individual kinase of the panel (Homo sapiens, UniProt P51955)
[23] = target: each individual kinase of the panel (Homo sapiens, UniProt Q86V86)
[24] = target: each individual kinase of the panel (Homo sapiens, UniProt P43403)
[25] = target: each individual kinase of the panel (Homo sapiens, UniProt P17612)
[26] = target: each individual kinase of the panel (Homo sapiens, UniProt P07947)
[27] = target: each individual kinase of the panel (Homo sapiens, UniProt P28482)
[28] = target: each individual kinase of the panel (Homo sapiens, UniProt P08922)
[29] = target: each individual kinase of the panel (Homo sapiens, UniProt P07333)

Sequence of each individual kinase of the panel (Homo sapiens, UniProt P16234) (P16234 24-1089 limits assumed): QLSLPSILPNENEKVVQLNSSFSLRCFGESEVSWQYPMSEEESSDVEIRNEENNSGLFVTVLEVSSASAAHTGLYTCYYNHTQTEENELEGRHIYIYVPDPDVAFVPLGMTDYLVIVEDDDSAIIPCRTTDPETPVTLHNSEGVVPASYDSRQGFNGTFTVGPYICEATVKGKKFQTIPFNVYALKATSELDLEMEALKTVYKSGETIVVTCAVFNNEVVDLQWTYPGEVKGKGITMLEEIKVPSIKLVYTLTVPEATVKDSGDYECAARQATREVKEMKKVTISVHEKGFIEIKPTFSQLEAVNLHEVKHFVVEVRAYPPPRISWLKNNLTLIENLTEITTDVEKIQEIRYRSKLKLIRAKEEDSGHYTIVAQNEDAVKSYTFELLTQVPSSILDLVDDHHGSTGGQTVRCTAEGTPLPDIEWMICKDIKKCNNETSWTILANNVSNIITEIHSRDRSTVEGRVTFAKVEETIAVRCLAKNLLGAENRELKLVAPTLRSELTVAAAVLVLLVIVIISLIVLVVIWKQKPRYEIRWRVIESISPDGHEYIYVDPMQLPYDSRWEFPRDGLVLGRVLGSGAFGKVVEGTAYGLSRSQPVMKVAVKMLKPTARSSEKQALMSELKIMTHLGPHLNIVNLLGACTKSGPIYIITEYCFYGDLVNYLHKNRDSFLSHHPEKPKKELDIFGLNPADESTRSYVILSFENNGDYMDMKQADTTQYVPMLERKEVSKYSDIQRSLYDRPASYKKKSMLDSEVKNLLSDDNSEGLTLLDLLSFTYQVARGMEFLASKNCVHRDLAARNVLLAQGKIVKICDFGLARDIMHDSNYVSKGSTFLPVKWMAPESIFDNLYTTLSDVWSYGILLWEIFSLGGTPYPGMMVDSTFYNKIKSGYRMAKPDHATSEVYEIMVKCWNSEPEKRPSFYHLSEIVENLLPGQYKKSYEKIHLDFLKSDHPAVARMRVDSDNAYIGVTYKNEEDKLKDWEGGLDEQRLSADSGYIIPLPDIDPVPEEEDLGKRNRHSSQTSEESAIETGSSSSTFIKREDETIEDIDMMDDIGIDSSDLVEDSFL
Sequence of each individual kinase of the panel (Homo sapiens, UniProt P08922) (P08922 28-2347 limits assumed): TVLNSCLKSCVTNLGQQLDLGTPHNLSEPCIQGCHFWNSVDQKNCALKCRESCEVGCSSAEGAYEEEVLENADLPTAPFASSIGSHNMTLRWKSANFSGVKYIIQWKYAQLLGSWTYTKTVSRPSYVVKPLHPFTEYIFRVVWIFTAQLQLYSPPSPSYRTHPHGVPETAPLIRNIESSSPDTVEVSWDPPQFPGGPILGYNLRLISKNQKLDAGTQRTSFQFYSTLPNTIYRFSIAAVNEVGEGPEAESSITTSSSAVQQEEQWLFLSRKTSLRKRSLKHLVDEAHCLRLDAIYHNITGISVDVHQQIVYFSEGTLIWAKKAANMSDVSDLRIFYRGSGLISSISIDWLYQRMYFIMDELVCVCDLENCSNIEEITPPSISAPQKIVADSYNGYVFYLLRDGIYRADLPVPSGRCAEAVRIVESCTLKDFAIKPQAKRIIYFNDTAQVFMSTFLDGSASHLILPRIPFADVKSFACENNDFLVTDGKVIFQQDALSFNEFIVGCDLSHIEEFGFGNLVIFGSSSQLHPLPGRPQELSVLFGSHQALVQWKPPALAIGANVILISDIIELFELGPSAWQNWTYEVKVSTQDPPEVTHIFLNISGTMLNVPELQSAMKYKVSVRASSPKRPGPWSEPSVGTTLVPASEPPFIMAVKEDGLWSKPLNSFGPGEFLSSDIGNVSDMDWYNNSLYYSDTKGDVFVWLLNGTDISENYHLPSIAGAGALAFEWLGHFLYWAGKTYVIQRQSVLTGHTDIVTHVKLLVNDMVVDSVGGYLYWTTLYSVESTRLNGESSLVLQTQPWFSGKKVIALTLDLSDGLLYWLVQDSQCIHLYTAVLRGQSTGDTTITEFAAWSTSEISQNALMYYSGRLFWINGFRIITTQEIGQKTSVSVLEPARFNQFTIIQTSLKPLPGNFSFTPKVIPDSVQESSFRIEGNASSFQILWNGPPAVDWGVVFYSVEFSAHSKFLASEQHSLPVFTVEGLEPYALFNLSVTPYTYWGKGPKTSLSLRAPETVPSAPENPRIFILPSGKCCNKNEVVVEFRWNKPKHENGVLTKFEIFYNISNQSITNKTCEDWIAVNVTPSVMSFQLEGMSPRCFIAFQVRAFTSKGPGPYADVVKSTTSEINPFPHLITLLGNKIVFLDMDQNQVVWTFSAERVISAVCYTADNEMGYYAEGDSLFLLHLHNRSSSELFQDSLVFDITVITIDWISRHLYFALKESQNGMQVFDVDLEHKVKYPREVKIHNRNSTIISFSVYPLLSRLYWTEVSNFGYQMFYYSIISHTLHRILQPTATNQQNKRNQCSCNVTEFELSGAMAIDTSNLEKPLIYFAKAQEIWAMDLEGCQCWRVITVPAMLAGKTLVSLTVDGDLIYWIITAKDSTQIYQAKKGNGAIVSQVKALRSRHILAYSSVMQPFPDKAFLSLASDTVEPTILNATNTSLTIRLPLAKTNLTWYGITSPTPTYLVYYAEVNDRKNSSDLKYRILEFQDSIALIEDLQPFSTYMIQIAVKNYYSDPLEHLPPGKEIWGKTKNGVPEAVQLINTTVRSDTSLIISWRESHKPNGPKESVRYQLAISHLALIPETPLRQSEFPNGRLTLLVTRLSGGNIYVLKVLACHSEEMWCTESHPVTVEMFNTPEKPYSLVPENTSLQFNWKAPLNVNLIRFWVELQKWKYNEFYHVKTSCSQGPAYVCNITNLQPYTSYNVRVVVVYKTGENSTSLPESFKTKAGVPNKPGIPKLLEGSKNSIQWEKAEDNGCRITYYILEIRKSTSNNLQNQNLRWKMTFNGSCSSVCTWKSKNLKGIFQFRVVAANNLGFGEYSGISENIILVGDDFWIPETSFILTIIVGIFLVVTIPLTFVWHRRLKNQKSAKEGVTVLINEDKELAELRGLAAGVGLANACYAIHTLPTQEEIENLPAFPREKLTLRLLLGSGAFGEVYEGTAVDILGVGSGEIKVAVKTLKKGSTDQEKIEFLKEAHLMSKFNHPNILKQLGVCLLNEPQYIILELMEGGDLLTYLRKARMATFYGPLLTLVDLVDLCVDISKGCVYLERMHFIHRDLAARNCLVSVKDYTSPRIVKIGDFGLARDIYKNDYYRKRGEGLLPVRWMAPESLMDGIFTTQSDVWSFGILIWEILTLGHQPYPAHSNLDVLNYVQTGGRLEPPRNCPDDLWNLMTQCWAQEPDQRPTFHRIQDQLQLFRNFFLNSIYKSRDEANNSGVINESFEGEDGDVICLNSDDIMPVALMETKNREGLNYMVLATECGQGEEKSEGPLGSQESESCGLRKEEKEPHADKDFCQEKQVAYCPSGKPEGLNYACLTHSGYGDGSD
Sequence of each individual kinase of the panel (Homo sapiens, UniProt P21802) (P21802 22-821 limits assumed): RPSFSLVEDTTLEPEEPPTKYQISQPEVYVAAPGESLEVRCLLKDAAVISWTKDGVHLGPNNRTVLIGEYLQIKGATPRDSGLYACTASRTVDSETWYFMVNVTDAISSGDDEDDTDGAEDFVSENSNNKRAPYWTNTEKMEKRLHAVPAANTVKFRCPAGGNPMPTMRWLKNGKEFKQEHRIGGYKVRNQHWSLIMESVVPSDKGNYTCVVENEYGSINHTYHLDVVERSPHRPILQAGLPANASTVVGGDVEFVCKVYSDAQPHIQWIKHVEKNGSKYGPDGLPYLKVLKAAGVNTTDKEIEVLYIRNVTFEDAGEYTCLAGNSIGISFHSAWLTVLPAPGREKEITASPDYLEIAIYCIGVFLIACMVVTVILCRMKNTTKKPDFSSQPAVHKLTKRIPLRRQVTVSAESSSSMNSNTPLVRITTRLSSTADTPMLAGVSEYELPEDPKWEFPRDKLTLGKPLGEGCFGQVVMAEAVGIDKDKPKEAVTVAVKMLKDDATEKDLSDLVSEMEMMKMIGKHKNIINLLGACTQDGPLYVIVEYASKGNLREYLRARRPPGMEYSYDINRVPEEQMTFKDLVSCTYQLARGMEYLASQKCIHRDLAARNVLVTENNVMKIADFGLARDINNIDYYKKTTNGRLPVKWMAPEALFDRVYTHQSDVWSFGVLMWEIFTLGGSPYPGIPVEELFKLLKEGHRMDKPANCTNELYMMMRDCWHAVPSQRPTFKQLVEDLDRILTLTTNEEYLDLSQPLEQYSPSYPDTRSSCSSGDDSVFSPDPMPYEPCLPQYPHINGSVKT
Sequence of each individual kinase of the panel (Homo sapiens, UniProt P07947) (P07947 2-543 limits assumed): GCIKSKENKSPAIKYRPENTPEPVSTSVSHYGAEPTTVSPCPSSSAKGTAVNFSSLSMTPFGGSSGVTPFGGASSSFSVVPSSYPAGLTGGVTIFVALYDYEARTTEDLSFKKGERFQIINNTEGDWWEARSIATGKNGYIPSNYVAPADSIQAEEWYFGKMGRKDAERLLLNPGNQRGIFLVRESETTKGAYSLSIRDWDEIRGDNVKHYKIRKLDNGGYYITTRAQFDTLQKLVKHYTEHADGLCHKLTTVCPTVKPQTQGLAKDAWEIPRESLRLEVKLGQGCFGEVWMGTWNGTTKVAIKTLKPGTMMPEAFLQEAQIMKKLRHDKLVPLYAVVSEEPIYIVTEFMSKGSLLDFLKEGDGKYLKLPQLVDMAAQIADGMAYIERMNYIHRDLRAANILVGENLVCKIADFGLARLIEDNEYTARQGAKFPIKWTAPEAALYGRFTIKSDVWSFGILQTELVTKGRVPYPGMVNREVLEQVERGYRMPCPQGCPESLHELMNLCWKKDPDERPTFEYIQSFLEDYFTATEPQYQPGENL
Sequence of each individual kinase of the panel (Homo sapiens, UniProt P50613) (P50613 2-346 limits assumed): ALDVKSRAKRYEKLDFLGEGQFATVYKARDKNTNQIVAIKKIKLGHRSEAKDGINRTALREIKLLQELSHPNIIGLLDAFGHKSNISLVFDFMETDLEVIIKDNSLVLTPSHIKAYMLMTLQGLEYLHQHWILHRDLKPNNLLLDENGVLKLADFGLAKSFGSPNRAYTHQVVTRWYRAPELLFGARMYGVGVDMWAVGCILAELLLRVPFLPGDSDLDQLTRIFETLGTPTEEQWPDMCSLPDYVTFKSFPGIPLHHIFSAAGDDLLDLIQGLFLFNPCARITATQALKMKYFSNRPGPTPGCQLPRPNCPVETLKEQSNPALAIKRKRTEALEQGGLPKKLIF

C#Cc1cccc(Nc2nc3cc(C(=O)O)ccc3c3cnccc23)c1 [drawing 1137]
AURKA percentage of activity [1]: 3%
ERBB4 percentage of activity [2]: 17%
PIM2 percentage of activity [3]: 6%
HCK percentage of activity [4]: 26%
DRAK1 percentage of activity [5]: 65%
MAP2K7 beta percentage of activity [6]: 7%
CDK7/cyclinH/MAT1 percentage of activity [7]: 36%
HIPK2 percentage of activity [8]: 96%
ALK percentage of activity [9]: −20%
DAPK3 percentage of activity [10]: 87%
VEGFR2 percentage of activity [11]: 55%
MEK1 percentage of activity [12]: 4%
PRKCT percentage of activity [13]: 10%
FGFR2 percentage of activity [14]: 11%
GSK3B percentage of activity [15]: 28%
EGFR(L858R) percentage of activity [16]: 24%
PDGFRA percentage of activity [17]: −2%
RON percentage of activity [18]: 9%
DYRK2 percentage of activity [19]: 55%
cKit(h) percentage of activity [20]: 15%
EGFR(T790M) percentage of activity [21]: 16%
NEK2 percentage of activity [22]: 73%
PIM3 percentage of activity [23]: −2%
ZAP70 percentage of activity [24]: 2%
PKA percentage of activity [25]: −9%
YES percentage of activity [26]: 34%
ERK2 percentage of activity [27]: 21%
ROS percentage of activity [28]: 5%
CSF1R percentage of activity [29]: −12%
